BindingDB's records for patent US11447487 (Bristol-Myers Squibb Company, 2022)

What follows are compounds tested against Rho-associated protein kinase 2 (Homo sapiens, UniProt O75116) (assay: In Vitro Assays).
Experimental: The effectiveness of compounds of the present invention as ROCK inhibitors can be determined in a 30 μL assay containing 20 mM HEPES, pH 7.5, 20 mM MgCl2, 0.015% Brij-35, 4 mM DTT, 5 μM ATP and 1.5 μM peptide substrate (FITC-AHA-AKRRRLSSLRA-OH) (SEQ ID No. 1). Compounds were dissolved in DMSO so that the final concentration of DMSO was <2%, and the reaction was initiated with Rho kinase variants. After incubation, the reaction was terminated by the addition of EDTA and the phosphorylated and non-phosphorylated peptides separated using a LABCHIP 3000 Reader (Caliper Life Sciences). […] Compounds were tested in dose-response format, and the inhibition of kinase activity was calculated at each concentration of compound. The inhibition data were fit using a curve-fitting program to determine the IC50; i.e., the concentration of compound required to inhibit 50% of kinase activity.

Sequence of Rho-associated protein kinase 2 (O75116 whole entry): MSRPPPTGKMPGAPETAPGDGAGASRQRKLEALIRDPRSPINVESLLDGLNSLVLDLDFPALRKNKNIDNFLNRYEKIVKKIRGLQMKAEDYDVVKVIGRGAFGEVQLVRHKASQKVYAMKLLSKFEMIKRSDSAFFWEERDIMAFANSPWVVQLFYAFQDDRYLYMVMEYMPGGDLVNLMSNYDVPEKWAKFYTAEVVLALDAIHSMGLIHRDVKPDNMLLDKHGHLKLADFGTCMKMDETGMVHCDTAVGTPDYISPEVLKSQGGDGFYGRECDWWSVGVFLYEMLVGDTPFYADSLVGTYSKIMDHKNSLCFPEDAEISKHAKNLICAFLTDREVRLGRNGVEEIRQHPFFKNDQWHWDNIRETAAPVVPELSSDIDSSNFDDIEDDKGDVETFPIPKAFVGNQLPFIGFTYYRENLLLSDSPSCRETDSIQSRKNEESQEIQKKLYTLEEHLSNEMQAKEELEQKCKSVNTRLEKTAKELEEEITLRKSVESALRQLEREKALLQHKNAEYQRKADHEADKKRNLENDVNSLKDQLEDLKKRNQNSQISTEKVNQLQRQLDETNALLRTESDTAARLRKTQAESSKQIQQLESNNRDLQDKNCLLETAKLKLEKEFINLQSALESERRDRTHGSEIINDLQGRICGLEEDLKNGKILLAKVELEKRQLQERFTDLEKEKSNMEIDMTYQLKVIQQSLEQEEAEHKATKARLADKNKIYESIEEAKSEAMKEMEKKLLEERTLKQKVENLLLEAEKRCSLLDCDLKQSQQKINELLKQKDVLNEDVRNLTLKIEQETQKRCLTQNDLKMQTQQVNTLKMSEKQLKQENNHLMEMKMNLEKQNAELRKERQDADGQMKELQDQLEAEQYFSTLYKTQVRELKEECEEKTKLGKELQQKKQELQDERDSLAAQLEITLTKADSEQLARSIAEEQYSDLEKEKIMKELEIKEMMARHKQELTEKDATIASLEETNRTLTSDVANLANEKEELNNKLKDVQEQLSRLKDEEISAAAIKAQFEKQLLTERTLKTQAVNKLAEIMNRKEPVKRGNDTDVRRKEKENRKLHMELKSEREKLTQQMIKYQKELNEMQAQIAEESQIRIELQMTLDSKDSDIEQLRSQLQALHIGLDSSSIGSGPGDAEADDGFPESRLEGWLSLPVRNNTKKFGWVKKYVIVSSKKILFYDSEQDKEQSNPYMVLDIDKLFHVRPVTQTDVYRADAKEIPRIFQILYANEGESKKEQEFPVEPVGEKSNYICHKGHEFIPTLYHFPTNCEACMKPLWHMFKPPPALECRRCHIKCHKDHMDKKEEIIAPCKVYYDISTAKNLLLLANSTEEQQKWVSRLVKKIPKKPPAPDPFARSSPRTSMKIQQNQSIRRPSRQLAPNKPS

Row | IC50 [nM] | SMILES
1 | 13 | NC(=O)c1cccnc1O[C@H]1CC2(C1)C[C@H](N1C(=O)NC(CCC3CCCCC3)C1=O)C2 (stereo partly drawn) [US11447487, Example 4]
2 | 456 | NC(=O)c1cccnc1O[C@H]1CC2(C1)C[C@H](N1C(=O)CC(Cc3ccccc3)NC1=O)C2 (stereo partly drawn) [US11447487, Example 76]
3 | 6 | NC(=O)c1cccnc1O[C@H]1CC2(C1)C[C@H](N1C(=O)CN(c3ccc(OC(F)(F)F)cc3)C1=O)C2 (stereo partly drawn) [US11447487, Example 86]
